Measured values: patent publication US20180206498A1, “SUBSTITUTED HETEROARYL CARBOXYLIC ACID HYDRAZIDES OR SALTS THEREOF AND USE THEREOF TO INCREASE STRESS TOLERANCE IN PLANTS” (Bayer CropScience Aktiengesellschaft, priority 2015, published 2018)

Each compound was assayed on Triticum aestivum (assay: Drought stress in vivo analysis Part B, appearance vs stressed control plants in categories). Settings: spray 25 g/ha.
Parameters: key: 0: no positive effect; +: slight positive effect; ++: clear positive effect; +++: strong positive effect
Method: Seeds of monocotyledonous and dicotyledonous crop plants were sown in sandy loam in plastic pots, covered with soil or sand and cultivated in a greenhouse under good growth conditions. The test plants are treated at the early leaf stage (BBCH10-BBCH13). To assure uniform water supply before commencement of stress, the potted plants were supplied with water by dam irrigation prior to substance application. The inventive compounds were first formulated as wettable powders (WP) or dissolved in a solvent mixture. The further dilution was effected with water supplemented with 0.2% wetting agent (e.g. agrotin). The finished spray liquor was sprayed onto the green parts of the plant at an equivalent water application rate of 600 I/ha. Substance application was followed immediately by stress treatment of the plants. Drought Stress was Induced by Gradual Drying Out Under the Following Conditions: “Day”: 14 hours with illumination at […]-30° C. “Night”: 10 hours without illumination at 18-20° C. The duration of the respective stress phases was guided mainly by the condition of the stressed control plants. It was ended (by re-irrigating and transfer to a greenhouse with good growth conditions) as soon as irreversible damage was observed on the stressed control plants. The end of the stress phase was followed by an about 4-7-day recovery phase, during which the plants were once again kept under good growth conditions in a greenhouse. The duration of the recovery phase was guided mainly by when the trial plants had attained a state which enabled visual scoring of potential effects, and was therefore variable. Once this juncture had been reached, the appearance of the plants treated with test substances was recorded in comparison to the stressed control plants by the following categories: [table] In order to rule out any influence on the effects observed by any fungicidal or insecticidal action of the test compounds, it was additionally ensured that the tests proceeded without fungal infection or insect infestation. The values reported in tables B-1 and […] below are mean values of the results from at least three repeats. Effects of selected compounds of the general formula (I) under drought stress according to the following tables B-1 and B-2: BRSNS=Brassica napus ZEAMX=Zea mays TRZAS=Triticum aestivum

Compound	Effect (TRZAS)
CN(C)N(Cc1cccc(Cl)c1Cl)C(=O)c1cn(C)nc1C(F)(F)F [Compound A4-4, N-(2,3-dichlorobenzyl)-N′,N′, 1-trimethyl-3-(trifluoromethyl)-1H-pyrazole-4-carbohydrazide]	+
CN(C)N(Cc1ccccc1C#N)C(=O)c1cn(C)nc1C(F)(F)F [Compound A4-61]	+
CN(C)N(Cc1ccccc1Cl)C(=O)c1cn(C)nc1C(F)F [Compound A8-1]	+
CN(C(=O)OC(C)(C)C)N(Cc1ccc(Cl)cc1Cl)C(=O)c1c(C(F)F)nn(C)c1F [Compound A13-5]	+
CN(C(=O)OC(C)(C)C)N(Cc1ccccc1Cl)C(=O)c1c(C(F)F)nn(C)c1Cl [Compound A14-1]	+
CN(C(=O)OC(C)(C)C)N(CCc1ccc(Cl)cc1Cl)C(=O)c1c(C(F)F)nn(C)c1Cl [Compound A14-615]	+
Cn1nc(C(F)F)c(C(=O)N(Cc2ccccc2C#N)N2CCCC2)c1Cl [Compound A18-61]	+
CN(C)N(Cc1ccccn1)C(=O)c1ccsc1C(F)F [Compound B3-21]	+
CCc1sccc1C(=O)N(Cc1ccccc1Cl)N(C)C [Compound B4-1]	+
CCc1sccc1C(=O)N(Cc1ccccn1)N(C)C [Compound B4-21]	+
CCc1sccc1C(=O)N(Cc1ccccc1C#N)N(C)C [Compound B4-61]	+
Cc1nc(-c2cccnc2)sc1C(=O)N(Cc1ccccc1C#N)N(C)C [Compound D1-61]	+
Cc1nc(-c2cccnc2)sc1C(=O)N(Cc1ccccc1C#N)N1CCCC1 [Compound D2-61]	+
CN(C)N(Cc1ccc(Cl)nc1)C(=O)c1snc(Cl)c1Cl [Compound E1-94]	+
CC(Cc1ccccc1)N(C(=O)c1snc(Cl)c1Cl)N(C)C (centres unmarked) [Compound E1-351]	+
N#Cc1ccccc1CN(C(=O)c1snc(Cl)c1Cl)N1CCCC1 [Compound E5-61]	+
CC(C)c1nnsc1C(=O)N(Cc1ccc(Cl)nc1)N(C)C [Compound F2-94]	+
CN(C)N(Cc1ccccc1Cl)C(=O)c1snc(N)c1Cl [Compound G1-1]	+

Same assay, conditions: spray 250 g/ha

Compound	Effect (TRZAS)
CCn1nc(C(F)F)c(C(=O)N(Cc2ccccc2C#N)N(C)C)c1F [Compound A7-61]	++
Cn1cc(C(=O)N(Cc2ccccc2C#N)N2CCCC2)c(C(F)F)n1 [Compound A20-61]	+
CCn1nc(C(F)F)c(C(=O)N(Cc2cccnc2C#N)N2CCCC2)c1F [Compound A24-679]	+
CN(C)N(Cc1ccccc1C#N)C(=O)c1ccsc1C(F)F [Compound B3-61, N-(2-Cyanobenzyl)-2-(difluoromethyl)-N′,N′-dimethylthiophene-3-carbohydrazide]	+
Cc1occc1C(=O)N(Cc1ccccc1C#N)N(C)C [Compound C3-61]	+
Cc1nc(-c2cccnc2)sc1C(=O)N(Cc1cccc(Cl)c1Cl)N(C)C [Compound D1-4]	+
CN(C)N(Cc1ccccn1)C(=O)c1sc(Cl)nc1Cl [Compound D6-21]	+
CN(C)N(Cc1ncc(C(F)(F)F)cc1Cl)C(=O)c1sc(Cl)nc1Cl [Compound D6-36]	+
CN(C)N(Cc1ccc(Cl)nc1)C(=O)c1sc(Cl)nc1Cl [Compound D6-94]	+
CN(C)N(Cc1ccccc1Cl)C(=O)c1snc(Cl)c1Cl [Compound E1-1]	+
CN(C)N(Cc1ccc(Cl)cc1)C(=O)c1snc(Cl)c1Cl [Compound E1-3]	+
CN(C)N(Cc1ccccc1C#N)C(=O)c1snc(Cl)c1Cl [Compound E1-61]	+
Cc1nnsc1C(=O)N(Cc1ccccc1C#N)N(C)C [Compound F1-61]	+
CC(C)c1nnsc1C(=O)N(Cc1ccccc1Cl)N(C)C [Compound F2-1, N-(2-Chlorobenzyl)-4-isopropyl-N′,N′-dimethyl-1,2,3-thiadiazole-5-carbohydrazide]	+
